Data published in PubChem BioAssay AID651794 (The Scripps Research Institute Molecular Screening Center, 2012).
Calls of active or inactive are those of the source. No rule for the calls is given here.

Tested on: cell-based VP16 transactivation counterscreen, luciferase luminescence
Experiment: nonselective repression of VP16-driven luciferase – cell-based, luminescence, dose response, counter-screen for SRC1 inhibitor project, late-stage follow-up (AID 651794)

| SMILES | IC50 |
| --- | --- |
| COc1ccc(Nc2ncnc3ccc(Br)cc23)c(OC)c1 | 36.2 µM (inactive) |
| COc1cc([C@@H]2c3cc4c(cc3C(OC3OC5COC(C)OC5C(O)C3O)C3COC(=O)[C@@H]32)OCO4)cc(OC)c1O (stereo partly drawn) | > 35.9 µM (inactive) |
| COc1ccc(NC(=O)CN(C)C(=O)C2(c3ccccc3)CCCC2)cc1 | > 35.9 µM (inactive) |
